Source: patent publication US20220305023A1, “Chlorophyllin Containing Pharmaceutical Composition For Prevention Of Pathogenesis Of Coronavirus Disease” (priority 2021, published 2022)

Assays:
SARS-CoV-2 virus = type: cell-based
[1] = Acute oral toxicity (oral gavage); type: in vivo, mice and rats
Procedure: (§1) Different doses of Chlorophyllin (100 to 5000 mg/kg body weight) were given to mice and rats (6 males, 6 females) by oral gavage in an accredited facility for animal toxicity testing.

[2] = 28 day repeat dose toxicity; type: in vivo, rats; conditions: 1000 mg/kg body weight daily for 28 consecutive days
Procedure: as §1

neutrophils = experiment: Phase I study: absolute neutrophil count (ANC) in blood; type: in vivo, human
Procedure: (§2) An open label Phase I clinical study was conducted to assess pharmacodynamics of sodium copper Chlorophyllin in healthy adult, human male subjects under fasting conditions. The study was approved by Drug Controller General of India (DCGI). The trial is registered with the Clinical Trial Registry of India (CTRI/2018/09/015576). Five healthy male subjects were allowed to fast overnight and one Chlorophyllin tablet (750 mg) was administered to each subject by oral route along with ˜200 ml water. The subjects were given breakfast, lunch and snacks and a second tablet of Chlorophyllin (750 mg) was administered to each subject by oral route along with 200 ml water after 12 hr.
(§3) Chlorophyllin tablets comprising Chlorophyllin or salts thereof (750 mg), were administered to healthy human subjects after overnight fasting. Blood samples were collected through an indwelling intravenous cannula (Venflon) placed in the fore arm vein of the subjects at different time intervals. Absolute neutrophil count (ANC) and white blood cell (WBC) counts were measured. Serum was separated and chemokine concentration in the serum was measured using cytometric bead array.

white blood cells = experiment: Phase I study: white blood cell (WBC) count in blood; type: in vivo, human; conditions: 8-16 hr after first dose of 750 mg
Procedure: as §2, §3

lymphocytes = experiment: Phase I study: absolute lymphocyte count in blood; type: in vivo, human; conditions: 750 mg tablets, healthy subjects
Procedure: as §2, §3

[3] = system: CD34+ hematopoietic stem and progenitor cells; experiment: Phase I study: CD34+ hematopoietic stem and progenitor cells in blood by flow cytometry; type: in vivo, human; conditions: 750 mg tablets, five subjects
Procedure: as §2
Blood sample at each time point was also collected in K2EDTA vacutainer tube and erythrocytes were lysed using RBC lysis buffer. Then cells were stained with fixable far red live dead reagent and PE-CD34 and FITC-CD45 antibodies at 4° C. and fixed with 4% formaldehyde. The frequency of CD34+ hematopoietic stem and progenitor cells in the blood was determined by flow cytometry and FlowJo software.

[4] = Phase I study: tolerability in healthy human subjects; type: in vivo; conditions: 750 mg given twice a day, five subjects
Procedure: as §2

Vero CCL-81 cells = conditions: 5 μM

Substance: Sodium copper Chlorophyllin
- effect on SARS-CoV-2 virus multiplication (SARS-CoV-2 virus; 0.1 micro molar): did not inhibit
- inhibition of SARS-CoV-2 multiplication (SARS-CoV-2 virus; 5 micro-molar, 72 hr, Vero CCL-81 cells): ~87%
- concentration required for ~90% inhibition of multiplication of SARS-CoV-2 virus (SARS-CoV-2 virus; Vero CCL-81 cells, 72 hr): about 5 micro molar
- EC50 (SARS-CoV-2 virus; Vero CCL-81 cells, 72 hr, read-out: concentration required to inhibit SARS-CoV-2 multiplication by 50% (EC50)): < 1000 nM
- effect on multiplication of SARS-CoV-2 virus (SARS-CoV-2 virus; less than 1 micro-molar): did not significantly decrease
- signs of toxicity ([1]; rodents, indicated doses (acute up to 5000 mg/kg; 1000 mg/kg for 28 days)): no signs of toxicity
- LD50 ([1]; rodents, oral, proposed from absence of toxicity): higher than 5000 mg/kg body weight
- tolerability of acute oral dose ([1]; up to 5000 mg/kg body weight, oral gavage, mice and rats): well tolerated
- tolerability of repeat dose [2]: well tolerated
- time to ANC increase after first dose (neutrophils; 750 mg, 4 hr before second dose): ≤ 8 h
- increase in ANC relative to pre-dose value (neutrophils; 8-16 hr after first dose of 750 mg, fasting, five subjects): 12.4-32.5%
- increase in WBC count relative to pre-dose value (white blood cells): 12.8-26.5%
- increase in lymphocyte counts in human blood as compared to pre-dose value (lymphocytes): up to 30%
- relative decrease in percentage of CD34+ HPSCs in human blood as compared to pre-dose value [3]: 50-85%
- tolerability in human subjects [4]: well tolerated
- cytotoxicity in the target cells (Vero CCL-81 cells): without causing cytotoxicity
